# Measured values: the supplement of paper PMC10702517
# ± gives the standard deviation.
# Experiment: chemical recovery from spiked human plasma; higher = better extraction
# Details: pooled human plasma
# [1] = extraction method: SPE only (HLB 96-well)
# [2] = extraction method: solvent precipitation (ACN + hexane)
# [3] = extraction method: PES+SPE (3 d PDMS equilibration then HLB SPE)
# [4] = extraction method: SPE only (HLB 96-well), PES comparison experiment
Structure (SMILES),chemical recovery [1],chemical recovery [2],chemical recovery [3],chemical recovery [4]
"Oc1cc(-c2ccc(Cl)cc2)ccc1Cl [3-Hydroxy-4,4'-dichlorobiphenyl]",35.7 ± 2.3%,42.3 ± 3.4%,,
Cc1ccc2cc3c(ccc4ccccc43)c3c2c1CC3 [3-Methylcholanthrene],0.839 ± 0.34%,58.3 ± 3.3%,,
"ClC(Cl)=C(c1ccc(Cl)cc1)c1ccc(Cl)cc1 [4,4'-DDE]",0.779 ± 0.23%,41.1 ± 2.4%,49.3 ± 15%,
"Clc1ccc(C(c2ccc(Cl)cc2)C(Cl)(Cl)Cl)cc1 [4,4'-DDT]",3.49 ± 1.1%,56.7 ± 8.1%,81.7 ± 22%,
"Nc1ccc(Cc2ccc(N)cc2)cc1 [4,4'-Methylenedianiline]",9.55 ± 0.81%,31.9 ± 11%,,
"Nc1ccc(Oc2ccc(N)cc2)cc1 [4,4'-Oxydianiline]",8.07 ± 0.83%,26.3 ± 9%,0.849 ± 0.6%,
"Clc1ccc(C(c2ccc(Cl)cc2)C(Cl)(Cl)Cl)cc1 [4,4-DDT]",,,,52.8 ± 20%
CN(C)c1ccncc1 [4-(Dimethylamino)pyridine],2.53 ± 2.1%,60.5 ± 4%,0.689 ± 0.15%,
CC(=O)N1CCOCC1 [4-Acetylmorpholine],3.35 ± 3.7%,,,
CC(C)(c1ccccc1)c1ccc(O)cc1 [4-Cumylphenol],30.6 ± 7.2%,46.6 ± 4.5%,,
"Oc1c(Cl)cc(-c2ccc(Cl)cc2)cc1Cl [4-Hydroxy-3,4',5-trichlorobiphenyl]",36.1 ± 5.9%,27.9 ± 1.8%,46.3 ± 7.3%,
CC(C)c1ccc(N)cc1 [4-Isopropylaniline],15.1 ± 2.4%,23.6 ± 3.4%,6.67 ± 1.6%,18.2 ± 5.3%
COc1cc([N+](=O)[O-])ccc1O [4-Nitroguaiacol],39.5 ± 6.2%,82.7 ± 14%,45.3 ± 6.9%,
CC(C)(C)CC(C)(C)c1ccc(O)cc1 [4-Tert-Octylphenol],25.4 ± 2%,,,
"CC1(C)C(=O)NC(=O)NC1=O [5,5-Dimethylbarbituric-acid]",8.69 ± 8.3%,39.8 ± 10%,5.81 ± 5%,
Nc1cccc2cc(S(=O)(=O)O)ccc12 [5-Aminonaphthalene-2-sulfonic acid],10.5 ± 3.9%,65 ± 2.7%,,18.3 ± 2.4%
Oc1ccc2[nH]ccc2c1 [5-Hydroxyindole],,39.3 ± 5.3%,,
CC(C)CC(C)NC1=CC(=O)C(Nc2ccccc2)=CC1=O (stereo not given) [6PPD-quinone],51.9 ± 4.4%,79.3 ± 4%,16.3 ± 4.4%,
C[C@H](CCC(=O)O)[C@H]1CC[C@H]2[C@@H]3C(=O)C[C@@H]4C[C@H](O)CC[C@]4(C)[C@H]3CC[C@]12C [7-Oxolithocholic-acid],38.6 ± 2.2%,65.4 ± 3.4%,51.1 ± 5.2%,
O=S(=O)(O)CCC(F)(F)C(F)(F)C(F)(F)C(F)(F)C(F)(F)C(F)(F)C(F)(F)C(F)(F)F [8.2-Fluorotelomersulfonic-acid],34 ± 2.1%,,,
"CC1NC(C)(C)COC1(O)c1cccc(Cl)c1 [(S,S)-Hydroxybupropion]",36.3 ± 2.2%,59.9 ± 3.2%,5.72 ± 0.93%,
c1cc2c3c(cccc3c1)CC2 [Acenaphthene],9.53 ± 0.88%,,,3.64 ± 1.1%
COP(=O)(NC(C)=O)SC (stereo not given) [Acephate],5.48 ± 5.2%,,3.58 ± 0.54%,
CC(=O)Nc1ccccc1 [Acetanilide],42 ± 2.4%,80.1 ± 3.5%,40.3 ± 9.3%,
c1ccc2nc3ccccc3cc2c1 [Acridine],28.4 ± 1.4%,49.6 ± 2.4%,39.7 ± 8%,51.6 ± 11%
CCN1CCCC1CNC(=O)c1cc(S(=O)(=O)CC)c(N)cc1OC (stereo not given) [Amisulpride],,70.3 ± 3.4%,,
Nc1ccccc1 [Aniline],4.14 ± 2.7%,,4.94 ± 0.92%,
CC(C)NCC(O)COc1ccc(CC(N)=O)cc1 (stereo not given) [Atenolol],14 ± 6.1%,76 ± 2.5%,17.1 ± 4.2%,
Brc1cc(Br)c(Oc2c(Br)cc(Br)c(Br)c2Br)cc1Br [BDE183],,,5.01 ± 7.1%,

# The remaining lines, values ahead:
chemical recovery [1],chemical recovery [2],chemical recovery [3],chemical recovery [4],Structure (SMILES)
0.288 ± 0.082%,,2.63 ± 2.7%,,O=C(O)CCC(F)(F)C(F)(F)C(F)(F)F [3.3-FTCA]
43.2 ± 5.5%,,21.7 ± 5%,,"COc1cc(NC(=O)CC(C)=O)c(OC)cc1Cl [4'-Chloro-2',5'-dimethoxyacetoacetanilide]"
2.12 ± 1.1%,,,,"CC(C)(c1ccccc1)c1ccc(Nc2ccc(C(C)(C)c3ccccc3)cc2)cc1 [4,4'-Bis(alpha,alpha-dimethylbenzyl)diphenylamine]"
1.65 ± 0.55%,30.1 ± 2.7%,54.3 ± 19%,,"ClC=C(c1ccc(Cl)cc1)c1ccc(Cl)cc1 [4,4'-DDMU]"
60 ± 5.2%,64.5 ± 4%,64.8 ± 5.4%,,CC(=O)CCc1ccc(O)cc1 [4-(4-Hydroxyphenyl)butan-2-one]
32.7 ± 2.9%,73.8 ± 2.2%,27.3 ± 3.6%,,Cc1cc(N)c2ccccc2n1 [4-Amino-2-methylquinoline]
63.7 ± 4.4%,,69.6 ± 6.2%,,"CN(C)S(=O)(=O)c1ccc(N)cc1 [4-Amino-N,N-dimethylbenzenesulfonamide]"
45.4 ± 4.2%,77.3 ± 4%,51.6 ± 4%,,CN(C)S(=O)(=O)c1ccc(N)cc1 [4-Amino-NN-dimethylbenzenesulfonamide]
8.59 ± 2.6%,67.1 ± 4.8%,6.85 ± 1.7%,,Cc1c(N)c(=O)n(-c2ccccc2)n1C [4-Aminoantipyrine]
1.91 ± 0.31%,,1.74 ± 1.1%,,Nc1ccc(Nc2ccccc2)cc1 [4-Aminodiphenylamine]
26.5 ± 3.5%,55 ± 2.7%,11 ± 2.9%,,"COc1cc(Cl)c(OC)cc1N [4-Chloro-2,5-dimethoxyaniline]"
34.4 ± 4.1%,69.5 ± 2.1%,41.3 ± 3.5%,,Cc1c(C=O)c(=O)n(-c2ccccc2)n1C [4-Formyl-antipyrine]
53 ± 4.1%,77.7 ± 3.6%,65.9 ± 5.4%,,O=C(c1ccccc1)c1ccc(O)cc1 [4-Hydroxybenzophenone]
32.8 ± 2.4%,3.14 ± 2.8%,,48 ± 8.1%,Oc1cccc2n[nH]nc12 [4-Hydroxybenzotriazole]
44.7 ± 1.7%,,,,Oc1ccnc2ccccc12 [4-Hydroxyquinoline]
21.3 ± 1.8%,,,,"Oc1c(Cl)cc(Cl)c2cccnc12 [5,7-Dichloro-8-hydroxyquinoline]"
1.01 ± 0.069%,58.3 ± 3.7%,,,Cc1c2ccccc2cc2c1cc(Br)c1ccccc12 [5-Bromo-7-methylbenzo[a]anthracene]
34.1 ± 2.7%,72.4 ± 3.9%,25.1 ± 5%,31.2 ± 3.7%,c1ccc2c(c1)[nH]c1ccncc12 [5-Carboline]
12.2 ± 4.9%,,2.63 ± 3.2%,,Oc1ccc(Cl)c2cccnc12 [5-Chloro-8-hydroxyquinoline]

chemical recovery [1],chemical recovery [2],chemical recovery [3],chemical recovery [4],Structure (SMILES)
50.5 ± 17%,0.332 ± 0.35%,79.2 ± 17%,,O=C(O)c1cc(C(=O)O)cc([N+](=O)[O-])c1 [5-Nitroisophthalic-acid]
33.9 ± 7.6%,70.3 ± 3.6%,29 ± 4%,,CC(C)N1C(=O)c2cc(O)ccc2NS1(=O)=O [6-Hydroxybentazone]
0.069 ± 0.0096%,0.144 ± 0.25%,0.00575 ± 0.005%,,Sc1ncnc2nc[nH]c12 [6-Mercaptopurine]
,,,45.1 ± 7.2%,C[C@]12CCC(=O)C=C1[C@H](O)C[C@@H]1[C@@H]2[C@@H](O)C[C@@]2(C)[C@H]1CC[C@]2(O)C(=O)CO [6-beta-Hydroxycortisol]
35.9 ± 1.7%,75.6 ± 2.9%,,43.1 ± 5%,O=S(=O)(O)CCC(F)(F)C(F)(F)C(F)(F)C(F)(F)C(F)(F)C(F)(F)F [6.2 fluorotelomer sulfonic acid]
7.04 ± 2.1%,,,,O=P(O)(OCCC(F)(F)C(F)(F)C(F)(F)C(F)(F)C(F)(F)C(F)(F)F)OCCC(F)(F)C(F)(F)C(F)(F)C(F)(F)C(F)(F)C(F)(F)F [6.2-Fluorotelomerphosphate-diester]
94 ± 5.9%,78.3 ± 2.5%,65.9 ± 13%,47.7 ± 7.5%,CCN(CC)c1ccc2c(C)cc(=O)oc2c1 [7-Diethylamino-4-methylcoumarin]
0.0979 ± 0.085%,10.9 ± 1.3%,,,Cc1ccc2c(c1)c1cccc3ccc4cccc2c4c31 [10-Methylbenzo[e]pyrene]
1.05 ± 0.96%,,0.458 ± 0.03%,9.57 ± 8%,C[N+](C)(C)CC(O)CCl (stereo not given) [(3-Chloro-2-hydroxypropyl)trimethylammonium]
,,,6.28 ± 4%,O=C(O)Cc1ccc(S(=O)(=O)O)cc1 [(4-Sulfophenyl)acetic acid]
10.4 ± 5.1%,,1.62 ± 1.1%,,Oc1cc(O)c2c(c1)O[C@H](c1ccc(O)c(O)c1)[C@H](O)C2 [(-)-Epicatechin]
,77 ± 3.4%,,,Nc1nc(NC2CC2)c2ncn([C@H]3C=C[C@@H](CO)C3)c2n1 [Abacavir]
37.1 ± 7.2%,,5.97 ± 0.52%,29.4 ± 6.9%,Nc1c(Br)cc(Br)cc1CN[C@H]1CC[C@H](O)CC1 [Ambroxol]
1.3 ± 0.4%,44.7 ± 6%,,,C[C@@]12CCC[C@H]1[C@@H]1CC[C@H]3C[C@@H](O)CC[C@]3(C)[C@H]1CC2 [Androstanol]
5.69 ± 2.6%,58.4 ± 13%,,,CC(C)(C)c1cc(Cn2c(=O)n(Cc3cc(C(C)(C)C)c(O)c(C(C)(C)C)c3)c(=O)n(Cc3cc(C(C)(C)C)c(O)c(C(C)(C)C)c3)c2=O)cc(C(C)(C)C)c1O [Antioxidant-3114]
30.1 ± 3.9%,61.7 ± 3%,32.2 ± 9.6%,41.1 ± 8.4%,CC(C)c1c(C(=O)Nc2ccccc2)c(-c2ccccc2)c(-c2ccc(F)cc2)n1CC[C@@H](O)C[C@@H](O)CC(=O)O [Atorvastatin]
8.77 ± 0.79%,,,,COc1ccc(C(=O)CC(=O)c2ccc(C(C)(C)C)cc2)cc1 [Avobenzone]
53.1 ± 4%,,,,O=C(O)CCCCCCCC(=O)O [Azelaic-acid]
,18.5 ± 1.6%,,,CCN(CCO)c1ccc(/N=N/c2sc3cc(OC)ccc3[n+]2C)cc1 [Basic-Blue-41]
